Assay results published in ChEMBL document CHEMBL3259750, “The antibacterial properties of sulfur containing flavonoids” (2014).
The source made the active and inactive calls. The rule behind the calls is not given here.

Columns and labels:
Staphylococcus aureus [1] = test: Antibacterial activity against Staphylococcus aureus ATCC 25923 assessed as growth inhibition after 18 hrs by colorimetric microdilution technique; assay type: functional; settings: ATCC 25923, 18 h
Escherichia coli [2] = test: Antibacterial activity against Escherichia coli ATCC 25922 assessed as growth inhibition after 18 hrs by colorimetric microdilution technique; assay type: functional; settings: ATCC 25922, 18 h
Staphylococcus aureus [3] = test: Antibacterial activity against Staphylococcus aureus ATCC 25923 assessed as diameter of growth inhibition zone at 0.25 mg/ml after 24 hrs by disk diffusion assay; assay type: functional; settings: for zone of inhibition at 250 µg/mL: ATCC 25923, 24 h, read-out: DIZ
Staphylococcus aureus [4] = test: Antibacterial activity against Staphylococcus aureus ATCC 25923 assessed as diameter of growth inhibition zone at 0.5 mg/ml after 24 hrs by disk diffusion assay; assay type: functional; settings: for zone of inhibition at 500 µg/mL: ATCC 25923, 24 h, read-out: DIZ
Staphylococcus aureus [5] = test: Antibacterial activity against Staphylococcus aureus ATCC 25923 assessed as diameter of growth inhibition zone at 1 mg/ml after 24 hrs by disk diffusion assay; assay type: functional; settings: for zone of inhibition at 1000 µg/mL: ATCC 25923, 24 h, read-out: DIZ
Escherichia coli [6] = test: Antibacterial activity against Escherichia coli ATCC 25922 assessed as diameter of growth inhibition zone at 0.25 mg/ml after 24 hrs by disk diffusion assay; assay type: functional; settings: for zone of inhibition at 250 µg/mL: ATCC 25922, 24 h, read-out: DIZ
Escherichia coli [7] = test: Antibacterial activity against Escherichia coli ATCC 25922 assessed as diameter of growth inhibition zone at 0.5 mg/ml after 24 hrs by disk diffusion assay; assay type: functional; settings: for zone of inhibition at 500 µg/mL: ATCC 25922, 24 h, read-out: DIZ
Escherichia coli [8] = test: Antibacterial activity against Escherichia coli ATCC 25922 assessed as diameter of growth inhibition zone at 1 mg/ml after 24 hrs by disk diffusion assay; assay type: functional; settings: for zone of inhibition at 1000 µg/mL: ATCC 25922, 24 h, read-out: DIZ
Staphylococcus aureus [9] = test: Antibacterial activity against Staphylococcus aureus ATCC 25923 assessed as diameter of growth inhibition zone at 10 ug/disk after 24 hrs by disk diffusion assay; assay type: functional, organism-based
Escherichia coli [10] = test: Antibacterial activity against Escherichia coli ATCC 25922 assessed as diameter of growth inhibition zone at 10 ug/disk after 24 hrs by disk diffusion assay; assay type: functional, organism-based
Candida albicans = test: Antifungal activity against Candida albicans ATCC 90028; assay type: functional, organism-based

CCN(CC)[c+]1sc2c(s1)C(c1ccc(Cl)cc1)Oc1ccc(Br)cc1-2.F[B-](F)(F)F (stereo not given)
MIC (Staphylococcus aureus [1]): 0.48 µg/mL
MIC (Escherichia coli [2]): 3.9 µg/mL

CCN(CC)[c+]1sc2c(s1)C(c1ccc(OC)cc1)Oc1ccc(Br)cc1-2.[O-][Cl+3]([O-])([O-])[O-] (stereo not given)
zone of inhibition at 250 µg/mL (Staphylococcus aureus [3]): 7.66 mm
zone of inhibition at 500 µg/mL (Staphylococcus aureus [4]): 9.66 mm
zone of inhibition at 1000 µg/mL (Staphylococcus aureus [5]): 13.7 mm
zone of inhibition at 250 µg/mL (Escherichia coli [6]): 6.66 mm
zone of inhibition at 500 µg/mL (Escherichia coli [7]): 7.33 mm
zone of inhibition at 1000 µg/mL (Escherichia coli [8]): 7.66 mm
MIC (Staphylococcus aureus [1]): 3.9 µg/mL
MIC (Escherichia coli [2]): 125 µg/mL

CCN(CC)[c+]1sc2c(s1)C(c1ccc(OC)cc1)Oc1ccc(Br)cc1-2.F[B-](F)(F)F (stereo not given)
MIC (Staphylococcus aureus [1]): 1.95 µg/mL
MIC (Escherichia coli [2]): 125 µg/mL

CCN(CC)[c+]1sc2c(s1)C(c1ccc(Cl)cc1)Oc1c(I)cc(I)cc1-2.F[B-](F)(F)F (stereo not given)
MIC (Staphylococcus aureus [1]): 0.97 µg/mL
MIC (Escherichia coli [2]): 15.6 µg/mL

CCN(CC)C(=S)SC1C(=O)c2ccccc2OC1c1ccc(Cl)cc1 (mixture of isomers)
diameter of the inhibition zone (DIZ) (Staphylococcus aureus [3]): inactive
diameter of the inhibition zone (DIZ) (Staphylococcus aureus [4]): inactive
diameter of the inhibition zone (DIZ) (Staphylococcus aureus [5]): inactive
diameter of the inhibition zone (DIZ) (Escherichia coli [6]): inactive
diameter of the inhibition zone (DIZ) (Escherichia coli [7]): inactive
diameter of the inhibition zone (DIZ) (Escherichia coli [8]): inactive

CCN(CC)[c+]1sc2c(s1)C(c1ccc(Cl)cc1)Oc1c(I)cc(I)cc1-2.[O-][Cl+3]([O-])([O-])[O-] (stereo not given)
zone of inhibition at 250 µg/mL (Staphylococcus aureus [3]): 8.33 mm
zone of inhibition at 500 µg/mL (Staphylococcus aureus [4]): 14 mm
zone of inhibition at 1000 µg/mL (Staphylococcus aureus [5]): 16.7 mm
zone of inhibition at 250 µg/mL (Escherichia coli [6]): 7.66 mm
zone of inhibition at 500 µg/mL (Escherichia coli [7]): 8.33 mm
zone of inhibition at 1000 µg/mL (Escherichia coli [8]): 9.33 mm
MIC (Staphylococcus aureus [1]): 1.95 µg/mL
MIC (Escherichia coli [2]): 7.81 µg/mL

CCN(CC)C(=S)SC1C(=O)c2cc(Br)ccc2OC1c1ccc(Cl)cc1 (stereo not given)
diameter of the inhibition zone (DIZ) (Staphylococcus aureus [3]): inactive
diameter of the inhibition zone (DIZ) (Staphylococcus aureus [4]): inactive
diameter of the inhibition zone (DIZ) (Staphylococcus aureus [5]): inactive
diameter of the inhibition zone (DIZ) (Escherichia coli [6]): inactive
diameter of the inhibition zone (DIZ) (Escherichia coli [7]): inactive
diameter of the inhibition zone (DIZ) (Escherichia coli [8]): inactive

CCN(CC)C(=S)SC1C(=O)c2cc(Br)cc(Br)c2OC1c1ccc(Cl)cc1 (stereo not given)
diameter of the inhibition zone (DIZ) (Staphylococcus aureus [3]): inactive
diameter of the inhibition zone (DIZ) (Staphylococcus aureus [4]): inactive
diameter of the inhibition zone (DIZ) (Staphylococcus aureus [5]): inactive
diameter of the inhibition zone (DIZ) (Escherichia coli [6]): inactive
diameter of the inhibition zone (DIZ) (Escherichia coli [7]): inactive
diameter of the inhibition zone (DIZ) (Escherichia coli [8]): inactive

GENTAMICIN
inhibition zone (IZ) (Staphylococcus aureus [9]): 18.3 mm
inhibition zone (IZ) (Escherichia coli [10]): 15.8 mm

CCN(CC)[c+]1sc2c(s1)C(c1ccc(Cl)cc1)Oc1ccc(Br)cc1-2.[O-][Cl+3]([O-])([O-])[O-] (stereo not given)
zone of inhibition at 250 µg/mL (Staphylococcus aureus [3]): 15 mm
zone of inhibition at 500 µg/mL (Staphylococcus aureus [4]): 17.3 mm
zone of inhibition at 1000 µg/mL (Staphylococcus aureus [5]): 20.3 mm
zone of inhibition at 250 µg/mL (Escherichia coli [6]): 8.33 mm
zone of inhibition at 500 µg/mL (Escherichia coli [7]): 10.7 mm
zone of inhibition at 1000 µg/mL (Escherichia coli [8]): 11.7 mm
MIC (Staphylococcus aureus [1]): 0.48 µg/mL
MIC (Escherichia coli [2]): 3.9 µg/mL

CCN(CC)C(=S)SC1C(=O)c2cc(I)cc(I)c2OC1c1ccc(Cl)cc1 (stereo not given)
diameter of the inhibition zone (DIZ) (Staphylococcus aureus [3]): inactive
diameter of the inhibition zone (DIZ) (Staphylococcus aureus [4]): inactive
diameter of the inhibition zone (DIZ) (Staphylococcus aureus [5]): inactive
diameter of the inhibition zone (DIZ) (Escherichia coli [6]): inactive
diameter of the inhibition zone (DIZ) (Escherichia coli [7]): inactive
diameter of the inhibition zone (DIZ) (Escherichia coli [8]): inactive

CCN(CC)C(=S)SC1C(=O)c2cc(Br)ccc2OC1c1ccc(OC)cc1 (mixture of isomers)
diameter of the inhibition zone (DIZ) (Staphylococcus aureus [3]): inactive
diameter of the inhibition zone (DIZ) (Staphylococcus aureus [4]): inactive
diameter of the inhibition zone (DIZ) (Staphylococcus aureus [5]): inactive
diameter of the inhibition zone (DIZ) (Escherichia coli [6]): inactive
diameter of the inhibition zone (DIZ) (Escherichia coli [7]): inactive
diameter of the inhibition zone (DIZ) (Escherichia coli [8]): inactive

CCN(CC)[c+]1sc2c(s1)C(c1ccc(Cl)cc1)Oc1c(Br)cc(Br)cc1-2.F[B-](F)(F)F (stereo not given)
zone of inhibition at 250 µg/mL (Staphylococcus aureus [3]): 17.7 mm
zone of inhibition at 500 µg/mL (Staphylococcus aureus [4]): 18.7 mm
zone of inhibition at 1000 µg/mL (Staphylococcus aureus [5]): 21.3 mm
diameter of the inhibition zone (DIZ) (Escherichia coli [6]): inactive
diameter of the inhibition zone (DIZ) (Escherichia coli [7]): inactive
zone of inhibition at 1000 µg/mL (Escherichia coli [8]): 10.7 mm
MIC (Staphylococcus aureus [1]): 1.95 µg/mL
MIC (Escherichia coli [2]): 7.81 µg/mL
Activity (Candida albicans): Active

CCN(CC)[c+]1sc2c(s1)C(c1ccc(Cl)cc1)Oc1ccccc1-2.F[B-](F)(F)F (stereo not given)
zone of inhibition at 250 µg/mL (Staphylococcus aureus [3]): 7.33 mm
zone of inhibition at 500 µg/mL (Staphylococcus aureus [4]): 14.3 mm
zone of inhibition at 1000 µg/mL (Staphylococcus aureus [5]): 16.3 mm
diameter of the inhibition zone (DIZ) (Escherichia coli [6]): inactive
diameter of the inhibition zone (DIZ) (Escherichia coli [7]): inactive
diameter of the inhibition zone (DIZ) (Escherichia coli [8]): inactive
MIC (Staphylococcus aureus [1]): 1.95 µg/mL
MIC (Escherichia coli [2]): 62.5 µg/mL
Activity (Candida albicans): Active
